The record followed here is ChEMBL document CHEMBL3588818 (Eur J Med Chem, 2015).

Where only a bound is given, the exact number is not on record here.

In assay [1] the test system is PC-12. Put plainly: Selectivity index, ratio of Ki for sigma2 receptor in Sprague-Dawley rat liver membranes to Ki for rat VAChT expressed in PC12 cell membranes. It counts as cell-based.
The nature of assay [2]: Displacement of [3H]DTG from sigma2 receptor in Sprague-Dawley rat liver membranes incubated for 2 hrs in presence of dextrallorphan by liquid scintillation counting based competitive radioligand binding assay. To be noted: read-out: Ki(app).
Assay [3] has as its system PC-12. The assay is described as follows: Selectivity index, ratio of Ki for sigma1 receptor in Sprague-Dawley rat cortical membranes to Ki for rat VAChT expressed in PC12 cell membranes. The class given is cell-based.
Assay [4] addresses T1, Vesicular acetylcholine transporter (Rattus norvegicus, UniProt Q62666).
T1 sequence (Q62666 whole entry): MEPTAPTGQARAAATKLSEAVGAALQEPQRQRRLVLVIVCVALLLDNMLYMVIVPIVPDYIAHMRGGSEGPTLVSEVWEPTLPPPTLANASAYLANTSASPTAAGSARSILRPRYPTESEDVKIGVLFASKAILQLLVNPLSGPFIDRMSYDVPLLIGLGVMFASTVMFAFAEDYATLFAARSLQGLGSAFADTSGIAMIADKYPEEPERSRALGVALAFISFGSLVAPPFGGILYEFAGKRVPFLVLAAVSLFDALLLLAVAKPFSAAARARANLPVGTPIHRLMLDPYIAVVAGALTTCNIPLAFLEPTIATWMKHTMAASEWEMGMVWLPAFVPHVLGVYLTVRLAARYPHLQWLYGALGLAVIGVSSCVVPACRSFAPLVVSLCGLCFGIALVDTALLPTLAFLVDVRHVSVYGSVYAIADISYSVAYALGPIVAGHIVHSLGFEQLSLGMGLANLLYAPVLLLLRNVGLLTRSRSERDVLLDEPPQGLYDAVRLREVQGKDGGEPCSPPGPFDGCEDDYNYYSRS
The assay is described as follows: Displacement of (-)-[3H]vesamicol from rat VAChT expressed in PC12 cell membranes incubated for 2 hrs by liquid scintillation counting based competitive radioligand binding assay. The arrangement: species or system PC-12. The following applies: read-out: Ki(app).

In assay [5] the target is Sigma non-opioid intracellular receptor 1 (Rattus norvegicus, UniProt Q9R0C9). The assay is described as follows: Displacement of […] from sigma1 receptor in Sprague-Dawley rat cortical membranes incubated for 2 hrs by liquid scintillation counting based competitive radioligand binding assay. The following applies: read-out: Ki(app).
Sequence of Sigma non-opioid intracellular receptor 1 (Q9R0C9 whole entry): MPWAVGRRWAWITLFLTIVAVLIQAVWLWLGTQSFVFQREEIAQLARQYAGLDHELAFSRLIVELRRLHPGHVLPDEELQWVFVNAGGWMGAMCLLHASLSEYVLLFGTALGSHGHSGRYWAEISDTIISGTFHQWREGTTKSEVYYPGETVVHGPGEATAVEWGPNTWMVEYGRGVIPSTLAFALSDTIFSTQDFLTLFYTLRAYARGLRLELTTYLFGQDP

With `O[C@@H]1CC[C@@H](OCc2ccc(F)cc2)C[C@H]1N1CCC(c2ccncc2)CC1` (racemic), the Ratio Ki in assay [1] and in assay [3] was < 0.1 in each case. Besides, the Ki in assay [2] stood at 85.8 nM; in assay [4], 1350 nM; in assay [5], 26.4 nM.
With `O[C@@H]1C[C@@H](OCc2ccc(F)cc2)CC[C@H]1N1CCC(c2ccccc2)CC1` (racemic), the Ratio Ki in assay [1] and in assay [3] was < 0.1 in each case. Further, the Ki was determined as 67.1 nM in assay [2], 2390 nM in assay [4] and 16.8 nM in assay [5].
Consider `O[C@@H]1C[C@@H](OCc2ccc(F)cc2)CC[C@H]1N1CCN(c2ccccc2)CC1` (racemic), for which the Ratio Ki is 0.2 in assay [1] and < 0.1 in assay [3]. Moreover, the Ki in assay [2] stood at 1040 nM; in assay [4], 6190 nM; in assay [5], 189 nM.
Regarding `O[C@@H]1C[C@@H](OCc2ccc(F)cc2)CC[C@H]1N1CC=C(c2ccccc2)CC1` (racemic), the Ratio Ki in assay [1] and in assay [3] was < 0.1 throughout. In addition, the Ki came to 55.5 nM in assay [2], 2830 nM in assay [4] and 15.9 nM in assay [5].
Consider `CCN(CCCc1ccccc1)[C@@H]1CC[C@H](OCc2ccc(F)cc2)C[C@H]1O` (racemic), for which the Ratio Ki in assay [1] is 0.1; in assay [3] it was < 0.1. For the same compound, the values for the Ki in assay [2], in assay [4] and in assay [5] were 280 nM, 1930 nM and 19.7 nM, respectively.
As for `O[C@@H]1C[C@@H](OCc2ccc(F)cc2)CC[C@H]1N1CCC(O)(c2ccccc2)CC1` (racemic), the Ki was 254 nM in assay [2], > 10000 nM in assay [4] and 31 nM in assay [5].
Turning to `CC(=O)C1(c2ccccc2)CCN([C@@H]2CC[C@H](OCc3ccc(F)cc3)C[C@H]2O)CC1` (racemic), the Ki is 103 nM in assay [2], > 10000 nM in assay [4] and 120 nM in assay [5].
On to `O[C@@H]1C[C@@H](OCc2ccc(F)cc2)CC[C@H]1N1CCC(c2ccccc2)(c2ccccc2)CC1` (racemic), for which the values for the Ratio Ki in assay [1] and in assay [3] were 2 and 0.3, respectively. The results for the Ki in assay [2], in assay [4] and in assay [5] were 5540 nM, 2730 nM and 736 nM, respectively.
In the same order, the values of `O[C@@H]1C[C@@H](OCc2ccc(F)cc2)CC[C@H]1N1CCC(Cc2ccccc2)CC1` (racemic) are 0.2, < 0.1, 207 nM, 1300 nM and 9.2 nM.
Regarding `O[C@@H]1C[C@@H](OCc2ccc(F)cc2)CC[C@H]1N1CCc2ccccc2C1` (racemic), the Ki in assay [2] was 45.6 nM; in assay [4], > 10000 nM; in assay [5] it was 23.1 nM.
Take `O[C@@H]1C[C@@H](OCc2ccc(F)cc2)CC[C@H]1N1CCC(N2CCCCC2)CC1` (racemic): the Ki in assay [2] is 374 nM; in assay [4] it was > 10000 nM; in assay [5], 300 nM.
Regarding `O=C(c1ccc(F)cc1)C1CCN([C@@H]2CC[C@H](OCc3ccc(F)cc3)C[C@H]2O)CC1` (racemic), the Ratio Ki in assay [1] is 0.3; in assay [3], < 0.1. The figures for the Ki in assay [2], in assay [4] and in assay [5] were 2000 nM, 5840 nM and 65.4 nM, respectively.
With `O[C@@H]1C[C@@H](OCc2ccc(F)cc2)CC[C@H]1N1CCC(c2ccncc2)CC1` (racemic), the Ki in assay [2] was 164 nM; in assay [4] it was > 10000 nM; in assay [5], 41.1 nM.
Take `O[C@@H]1CC[C@@H](OCCCF)C[C@H]1N1CCC(c2ccccc2)CC1` (racemic): the Ratio Ki in assay [1] is 1.8; in assay [3], 0.5. In addition, the Ki in assay [2] stood at 88.2 nM; in assay [4] it was 47.8 nM; in assay [5], 25.9 nM.
On to `O[C@@H]1C[C@@H](OCCCF)CC[C@H]1N1CCC(c2ccccc2)CC1` (racemic), for which the Ratio Ki in assay [1] stood at 12; in assay [3] it was 1.6. Further, the Ki in assay [2] was found to be 717 nM; in assay [4], 59.6 nM; in assay [5], 97.6 nM.
On to `O[C@@H]1Cc2ccccc2C[C@H]1N1CCN(c2ccccc2)CC1` (racemic), for which the Ratio Ki in assay [1] is 22.7; in assay [3] it was 8.3. Moreover, the Ki was found to be 1280 nM in assay [2], 56 nM in assay [4] and 466 nM in assay [5].
On to `O[C@@H]1Cc2ccccc2C[C@H]1N1CC=C(c2ccccc2)CC1` (racemic), for which the Ki in assay [2] came to 166 nM; in assay [5] it was 24 nM.
`O[C@@H]1Cc2ccccc2C[C@H]1N1CCC(O)(c2ccccc2)CC1` (racemic): the Ratio Ki in assay [1] worked out at 47.7; in assay [3] it was 5.8. In addition, the Ki in assay [2] was determined as 549 nM; in assay [4], 11.5 nM; in assay [5], 67 nM.
Turning to `O[C@@H]1Cc2ccccc2C[C@H]1N1CCC(Cc2ccccc2)CC1` (racemic), the Ratio Ki in assay [1] is 2.6; in assay [3] it was 2.8. Further, the Ki stood at 60 nM in assay [2], 23.2 nM in assay [4] and 65 nM in assay [5].
Take `O[C@@H]1Cc2ccccc2C[C@H]1N1CCC(N2CCCCC2)CC1` (racemic): the Ratio Ki came out at 1.4 in assay [1] and 2.2 in assay [3]. Besides, the Ki amounted to 161 nM in assay [2], 112 nM in assay [4] and 248 nM in assay [5].
Taken in the same sequence, the figures for `O[C@@H]1Cc2ccccc2C[C@H]1N1CCC(c2ccncc2)CC1` (racemic) were 13.4, 0.5, 258 nM, 19.3 nM and 8.9 nM.
Take `Nc1cccc2c1C[C@@H](O)[C@H](N1CCC(c3ccccc3)CC1)C2` (racemic): the Ratio Ki in assay [1] came out at 2.1; in assay [3], 0.2. Also, the Ki in assay [2] came out at 726 nM; in assay [4], 339 nM; in assay [5] it was 55.3 nM.
In the case of `O=C(Nc1cccc2c1C[C@@H](O)[C@H](N1CCC(Cc3ccccc3)CC1)C2)c1ccc(F)cc1` (racemic), the Ki in assay [2] was 2110 nM; in assay [4], > 10000 nM; in assay [5], 296 nM.
Regarding `O[C@@H]1CCCC[C@H]1N1CCc2ccccc2C1` (racemic), the figures for the Ki in assay [2] and in assay [5] were 809 nM and 54.3 nM, respectively.
Consider `O[C@@H]1CCCC[C@H]1N1CCC(N2CCCCC2)CC1` (racemic), for which the figures for the Ki in assay [2], in assay [4] and in assay [5] were 4710 nM, 5110 nM and > 1000 nM, respectively.
For the compound `O[C@@H]1CCCC[C@H]1N1CCC(c2ccncc2)CC1` (racemic), the Ki in assay [2] was 3320 nM; in assay [4], 3380 nM; in assay [5], > 1000 nM.
For the compound `CCN(CCCc1ccccc1)[C@@H]1C[C@H](OCc2ccc(F)cc2)CC[C@H]1O` (racemic), in assay [1], the Ratio Ki is < 0.1. Further, the values for the Ki in assay [2], in assay [4] and in assay [5] were 109 nM, 1610 nM and 10.5 nM, respectively.
In the case of `O[C@@H]1CC[C@@H](OCc2ccc(F)cc2)C[C@H]1N1CCC(c2ccccc2)(c2ccccc2)CC1` (racemic), the results for the Ratio Ki in assay [1] and in assay [3] were 3.9 and 0.8, respectively. Further, the Ki came to 2360 nM in assay [2], 603 nM in assay [4] and 456 nM in assay [5].
`O[C@@H]1CC[C@@H](OCc2ccc(F)cc2)C[C@H]1N1CCC(Cc2ccccc2)CC1` (racemic): the Ratio Ki turned out to be 0.6 in assay [1] and 0.2 in assay [3]. In addition, the Ki in assay [2] was determined as 61.8 nM; in assay [4], 110 nM; in assay [5], 25.2 nM.
On to `O[C@@H]1CC[C@@H](OCc2ccc(F)cc2)C[C@H]1N1CCc2ccccc2C1` (racemic), for which the Ratio Ki in assay [1] and in assay [3] was < 0.1 in each case. The Ki in assay [2] was 45.9 nM; in assay [4], 4670 nM; in assay [5], 59 nM.
On to `O[C@@H]1CC[C@@H](OCc2ccc(F)cc2)C[C@H]1N1CCC(N2CCCCC2)CC1` (racemic), for which the Ratio Ki in assay [1] and in assay [3] was 0.1 in each case. Besides, the Ki in assay [2] turned out to be 543 nM; in assay [4] it was 4790 nM; in assay [5] it was 553 nM.
As to `O=C(c1ccc(F)cc1)C1CCN([C@@H]2C[C@H](OCc3ccc(F)cc3)CC[C@H]2O)CC1` (racemic), the Ratio Ki in assay [1] was 0.6; in assay [3], < 0.1. The Ki in assay [2] was 640 nM; in assay [4], 1030 nM; in assay [5], 59.4 nM.
Regarding `CCN(CCCc1ccccc1)[C@@H]1CCCC[C@H]1O` (racemic), the values for the Ki in assay [2], in assay [4] and in assay [5] were 652 nM, > 10000 nM and 115 nM, respectively.
For `O[C@@H]1Cc2cccc(OCCF)c2C[C@H]1N1CCC(c2ccccc2)CC1` (racemic), the Ratio Ki in assay [3] stood at 10.7.
Take `O[C@@H]1Cc2ccccc2C[C@H]1N1CCC(c2ccccc2)CC1` (racemic) [BENZOVESAMICOL]: the figures for the Ki in assay [2] and in assay [5] were 96.4 nM and 26.1 nM, respectively.
As for `O[C@@H]1CCCC[C@H]1N1CCC(c2ccccc2)CC1` (racemic) [VESAMICOL], the Ki in assay [2] amounted to 112 nM.
